Experimental data from patent US20080058373A1, “Compositions and Methods for Treating or Preventing Glaucoma or Progression Thereof” (priority 2006, published 2008).
Where “and” joins values, the source holds several entries; their conditions need not be identical. Equal entries are not always repeated.

Test system: Myeloperoxidase (MPO)
Assay: Myeloperoxidase (MPO) activity in iris-ciliary body, rabbit paracentesis model
Type: in vivo
Conditions: for MPO activity in iris-ciliary body, Mean / MPO activity in iris-ciliary body: samples collected after the second paracentesis; for MPO activity in iris-ciliary body, Mean: group mean; for Δ/min (mean of the slope of the line recorded every 15 sec for 5 min): 100 μl supernatant aliquot diluted to 3 ml; for Δ/min (mean of the slope of the line recorded every 15 sec for 5 min) / MPO activity in iris-ciliary body: individual eyes
Procedure: 3.9 g of NaH2PO4 2H2O were dissolved in a volumetric flask to 500 ml with water. The pH was adjusted to pH=6 with 3N NaOH.
0.5 g of hexa-decyl-trimethyl-ammonium bromide was dissolved in 100 ml phosphate buffer.
The solution was prepared freshly. Ten microliters of H2O2 (30 wt. %) were diluted to 1 ml with water (solution A). 7.5 mg o-dianisidine 2HCl was dissolved in 45 ml of phosphate buffer and 75 μl of solution A were added.
Each rabbit was placed in a restraint device and tagged with the alphanumeric code. The formulations were instilled (50 μl) into the conjunctival sac of both eyes 180, 120, 90 and 30 min before the first paracentesis; then 15, 30, 90 min after the first paracentesis. To perform the first paracentesis the animals were anaesthetized by intravenous injection of 5 mg/kg Zoletil® (Virbac; 2.5 mg/kg tiletamine HCl and 2.5 mg/kg zolazepam HCl) and one drop of local anesthetic (Novesina®, Novartis) was administered to the eye. Anterior chamber paracentesis was performed with a 26 G needle attached to a tuberculin syringe; the needle was introduced into the anterior chamber through the cornea, taking care not to damage the tissues. Two hours after the first paracentesis, the animals were sacrificed with 0.4 ml Tanax® (Intervet International B.V.) and the second paracentesis was performed. About 100 μl of aqueous humor were removed at the second paracentesis. Aqueous humor was immediately split in four aliquots and stored at −80° C. until analysis. Then both eyes were enucleated and the iris-ciliary body was carefully excised, placed in polypropylene tubes, and stored at −80° C. until analysis.
The activity of MPO was measured as previously described by Williams et al.[5] The iris-ciliary bodies were carefully dried, weighed and immersed in 1 ml of hexa-decyl-trimethyl-ammonium bromide solution. Then, the samples were sonicated for 10 sec on ice by a ultrasound homogenizer (HD 2070, Bandelin electronic), freeze-thawed three times, sonicated for 10 sec and centrifuged at 14,000 g for 10 min to remove cellular debris. An aliquot of the supernatant (40-200 μl) was diluted to 3 ml with the o-dianisidine 2HCl/H2O2 solution. The change in absorbance at 460 nm was continuously monitored for 5 min by a spectrophotometer (UV/Vis Spectrometer Lambda EZ 201; Perkin Elmer). The slope of the line (Δ/min) was determined for each sample and used to calculate the number of units of MPO in the tissue as follows:
Values were expressed as units of MPO/g of tissue.

| SMILES | MPO activity in iris-ciliary body, Mean (0.1% topical) [MPO Unit/g] | Δ/min (mean of the slope of the line recorded every 15 sec for 5 min) (0.1% treatment, listed as BOL) | MPO activity in iris-ciliary body (0.1% treatment, listed as BOL) | MPO activity in iris-ciliary body, Mean (0.5% topical) [MPO Unit/g] | Δ/min (mean of the slope of the line recorded every 15 sec for 5 min) (0.5% treatment, listed as BOL) | MPO activity in iris-ciliary body (0.5% treatment, listed as BOL) | MPO activity in iris-ciliary body, Mean (1% topical) [MPO Unit/g] | Δ/min (mean of the slope of the line recorded every 15 sec for 5 min) (1% treatment, listed as BOL) | MPO activity in iris-ciliary body (1% treatment, listed as BOL) | Δ/min (mean of the slope of the line recorded every 15 sec for 5 min) (0.1% treatment, listed as Dex) | MPO activity in iris-ciliary body (0.1% treatment, listed as Dex) |
| --- | --- | --- | --- | --- | --- | --- | --- | --- | --- | --- | --- |
| Cc1ccc2c(NCC(O)(CC(C)(C)c3cc(F)cc4c3OCC4)C(F)(F)F)cccc2n1 (stereo not drawn) | 0.971 | 0.051 and 0.042 (2×) and 0.045 and 0.050 and 0.031 (2×) and 0.036 | 1.04 Unit/g and 1.00 Unit/g and 1.14 Unit/g and 1.06 Unit/g and 1.22 Unit/g and 0.61 Unit/g and 1.05 Unit/g and 0.65 Unit/g | 0.775 | 0.044 and 0.040 and 0.031 and 0.049 and 0.033 and 0.034 and 0.022 and 0.026 | 0.85 Unit/g and 0.93 Unit/g and 0.79 Unit/g and 1.03 Unit/g and 0.75 Unit/g and 0.74 Unit/g and 0.54 Unit/g and 0.58 Unit/g | 0.542 | 0.024 and 0.033 and 0.017 and 0.018 (2×) and 0.016 and 0.052 and 0.013 | 0.66 Unit/g and 0.68 Unit/g and 0.49 Unit/g and 0.40 Unit/g and 0.34 Unit/g and 1.02 Unit/g and 0.31 Unit/g and 0.43 Unit/g |  |  |
| C[C@@H]1C[C@H]2[C@@H]3CCC4=CC(=O)C=C[C@]4(C)[C@@]3(F)[C@@H](O)C[C@]2(C)[C@@]1(O)C(=O)CO [dexamethasone, reference compound] | 0.618 |  |  |  |  |  |  |  |  | 0.029 and 0.031 and 0.064 and 0.023 (2×) and 0.019 and 0.024 and 0.021 | 0.71 Unit/g and 0.60 Unit/g and 1.32 Unit/g and 0.48 Unit/g (2×) and 0.39 Unit/g and 0.45 Unit/g and 0.51 Unit/g |
